Assay: Pharmacokinetics after oral capsules (sCT plus Dmt-DALDA with citric acid and lauroyl carnitine), non-enteric coated or enteric coated, in fasted beagle dogs (plasma; ELISA for sCT, HPLC-MS for Dmt-DALDA)
Assay type: in vivo
Conditions: for AUC / Cmax: normalized to a 1 mg dose; for Tmax / Cmax: beagle, dog, plasma, oral; for plasma peptide concentration normalized to a 1 mg dose: enteric coated capsule
Experimental: A second series of tests was carried out, as noted above, using beagle dogs. […] In the experiments represented in FIGS. 2A and 2B, size 00 […] capsules were each filled with 758 mg of a powdered blend consisting of citric acid (643 mg), lauroyl carnitine (66 mg), talc (33 mg), salmon calcitonin (sCT) (13 mg) and Dmt-DALDA (2.4 mg). Half of the capsules were coated with an enteric coating solution of L30D-55, while the remaining 50% of the capsules were not coated. Four fasted dogs were each given 1 uncoated capsule, and 2 weeks later they were each given an enteric coated capsule. After administration of each capsule, samples of blood were taken at 15 minute intervals from an indwelling catheter for up to 4 hours. The blood samples were centrifuged and the resulting plasma supernatants were stored frozen at −20° C. The plasma samples were subsequently analyzed for sCT by a direct ELISA, and for Dmt-DALDA by HPLC-mass spectrometry performed as set forth in Wan, H. and Desiderio, D., Quantitation of [DMT^1] DALDA in ovine plasma by on-line liquid chromatography/quadrapole time-of-flight mass spectrometry, Rapid Communications in Mass Spectrometry, 2003; 17, 538-546, the contents of which are incorporated herein by reference.
The results summarized in FIGS. 2A and 2B as plasma peptide concentration normalized to a 1 mg dose as a function of time relative to the average Tmax, (i.e., the time at which the maximum amount of peptide was detected) indicate that both peptides, i.e., sCT and Dmt-DALDA, were detected in dogs given uncoated or enteric coated capsules. […] Table DI (below) sets forth the values upon which the curves in FIGS. 2A and 2B are based. The results are summarized in the tables as plasma peptide concentration normalized to a 1 mg dose as a function of time. Table III, moreover, provides the standard deviations for the data obtained regarding each of the test dogs, which standard deviations are also indicated in FIGS. 2A and 2B.
Table IV (below) summarizes the pharmacokinetic parameters in dogs of orally administered sCT and Dmt-DALDA when administered in non-enteric coated versus enteric coated capsules. Peptide was not detected from 1 dog in each group due to (a) Dog 3 vomiting the uncoated capsule and (b) delayed gastric emptying in Dog 2 provided with an enteric coated capsule. Cmax and AUC are as defined with regard to Table H above.

[1] = Non-Enteric Capsule, Avg (n = 3)

SMILES: Cc1cc(O)cc(C)c1C[C@H](N)C(=O)N[C@H](CCCNC(=N)N)C(=O)N[C@@H](Cc1ccccc1)C(=O)N[C@@H](CCCCN)C(N)=O [Dmt-DALDA, H-2,6-dimethyltyrosine-D-Arginine-Phenylalanine-Lysine-NH2]
- AUC (Enteric Capsule, Avg (n = 3)): 1443143 pg/mL-min
- AUC (Enteric Capsule, Dog 1): 2375695 pg/mL-min
- AUC (Enteric Capsule, Dog 2 (delayed gastric emptying)): 0 pg/mL-min
- AUC (Enteric Capsule, Dog 3): 1185373 pg/mL-min
- AUC (Enteric Capsule, Dog 4): 768361 pg/mL-min
- AUC [1]: 542977 pg/mL-min
- AUC (Non-Enteric Capsule, Dog 1): 410944 pg/mL-min
- AUC (Non-Enteric Capsule, Dog 2): 707054 pg/mL-min
- AUC (Non-Enteric Capsule, Dog 3 (vomited capsule)): 0 pg/mL-min
- AUC (Non-Enteric Capsule, Dog 4): 510934 pg/mL-min
- Tmax (Enteric Capsule, Avg (n = 3)): 100 min
- Cmax (Enteric Capsule, Avg (n = 3)): 21 ng/mL
- Tmax (Enteric Capsule, Dog 1): 45 min
- Cmax (Enteric Capsule, Dog 1): 29.4 ng/mL
- Tmax (Enteric Capsule, Dog 3): 135 min
- Cmax (Enteric Capsule, Dog 3): 21.5 ng/mL
- Tmax (Enteric Capsule, Dog 4): 120 min
- Cmax (Enteric Capsule, Dog 4): 12.1 ng/mL
- Tmax [1]: 40 min
- Cmax [1]: 5.79 ng/mL
- Tmax (Non-Enteric Capsule, Dog 1): 45 min
- Cmax (Non-Enteric Capsule, Dog 1): 5.1 ng/mL
- Tmax (Non-Enteric Capsule, Dog 2): 30 min
- Cmax (Non-Enteric Capsule, Dog 2): 6.47 ng/mL
- Tmax (Non-Enteric Capsule, Dog 4): 45 min
- Cmax (Non-Enteric Capsule, Dog 4): 5.79 ng/mL
- Cmax and AUC, enteric coated capsules versus non enteric-coated capsules (dogs): significantly enhanced
- Cmax of enteric coated relative to non enteric coated (dogs): 4 fold
- amount of peptide detected in plasma, enteric coated capsules vs non-coated capsules (dogs): nearly four times as much
- time at which the maximum concentration was seen (dogs given coated capsules): 105 min
- amount of Dmt-DALDA detected relative to sCT (dogs given enteric coated capsules): nearly equal amounts
- amount of Dmt-DALDA detected relative to sCT (dogs given uncoated capsules): nearly three times as much
- time at which the maximum concentration was seen (dogs given uncoated capsules): 30 min
- plasma peptide concentration normalized to a 1 mg dose (Dog 1, 0 min): 0 pg/mL
- plasma peptide concentration normalized to a 1 mg dose (Dog 1, 15 min): 0 pg/mL
- plasma peptide concentration normalized to a 1 mg dose (Dog 1, 30 min): 0 pg/mL
- plasma peptide concentration normalized to a 1 mg dose (Dog 1, 45 min): 29440 pg/mL
- plasma peptide concentration normalized to a 1 mg dose (Dog 1, 60 min): 25224 pg/mL
- plasma peptide concentration normalized to a 1 mg dose (Dog 1, 75 min): 19768 pg/mL
- plasma peptide concentration normalized to a 1 mg dose (Dog 1, 90 min): 19021 pg/mL
- plasma peptide concentration normalized to a 1 mg dose (Dog 1, 105 min): 12324 pg/mL
- plasma peptide concentration normalized to a 1 mg dose (Dog 1, 120 min): 8108 pg/mL
- plasma peptide concentration normalized to a 1 mg dose (Dog 1, 135 min): 10714 pg/mL
- plasma peptide concentration normalized to a 1 mg dose (Dog 1, 150 min): 9349 pg/mL
- plasma peptide concentration normalized to a 1 mg dose (Dog 1, 165 min): 6743 pg/mL
- plasma peptide concentration normalized to a 1 mg dose (Dog 1, 180 min): 5502 pg/mL
- plasma peptide concentration normalized to a 1 mg dose (Dog 1, 195 min): 5008 pg/mL
- plasma peptide concentration normalized to a 1 mg dose (Dog 1, 210 min): 3021 pg/mL
- plasma peptide concentration normalized to a 1 mg dose (Dog 2 (delayed gastric emptying), 0 min): 0 pg/mL
- plasma peptide concentration normalized to a 1 mg dose (Dog 2 (delayed gastric emptying), 15 min): 0 pg/mL
- plasma peptide concentration normalized to a 1 mg dose (Dog 2 (delayed gastric emptying), 30 min): 0 pg/mL
- plasma peptide concentration normalized to a 1 mg dose (Dog 2 (delayed gastric emptying), 45 min): 0 pg/mL
- plasma peptide concentration normalized to a 1 mg dose (Dog 2 (delayed gastric emptying), 60 min): 0 pg/mL
- plasma peptide concentration normalized to a 1 mg dose (Dog 2 (delayed gastric emptying), 75 min): 0 pg/mL
- plasma peptide concentration normalized to a 1 mg dose (Dog 2 (delayed gastric emptying), 90 min): 0 pg/mL
- plasma peptide concentration normalized to a 1 mg dose (Dog 2 (delayed gastric emptying), 105 min): 0 pg/mL
- plasma peptide concentration normalized to a 1 mg dose (Dog 2 (delayed gastric emptying), 120 min): 0 pg/mL
- plasma peptide concentration normalized to a 1 mg dose (Dog 2 (delayed gastric emptying), 135 min): 0 pg/mL
- plasma peptide concentration normalized to a 1 mg dose (Dog 2 (delayed gastric emptying), 150 min): 0 pg/mL
- plasma peptide concentration normalized to a 1 mg dose (Dog 2 (delayed gastric emptying), 165 min): 0 pg/mL
- plasma peptide concentration normalized to a 1 mg dose (Dog 2 (delayed gastric emptying), 180 min): 0 pg/mL
- plasma peptide concentration normalized to a 1 mg dose (Dog 2 (delayed gastric emptying), 195 min): 0 pg/mL
- plasma peptide concentration normalized to a 1 mg dose (Dog 2 (delayed gastric emptying), 210 min): 0 pg/mL
- plasma peptide concentration normalized to a 1 mg dose (Dog 3, 0 min): 0 pg/mL
- plasma peptide concentration normalized to a 1 mg dose (Dog 3, 15 min): 0 pg/mL
- plasma peptide concentration normalized to a 1 mg dose (Dog 3, 30 min): 0 pg/mL

Reference: US8835377B2, “Oral delivery of peptide pharmaceutical compositions” (UGP Therapeutics, Inc., priority 2004, dated 2014)
